Measured values as given in US9732104B2, “Ether compounds for treatment of complement mediated disorders” (Achillion Pharmaceuticals, Inc., priority 2014, dated 2017).

Biological target: Human factor D (Homo sapiens (Human), UniProt P00746)
Test: Human Factor D Assay
Format: biochemical
Conditions: Human factor D purified from human serum, 80 nM; substrate Z-L-Lys-SBzl with DTNB; assay of Example 8
Procedure: The assay of Example 8 was used to determine the IC50's of the compounds. Other standard factor D inhibition assays are also available.
Example 8. Human Factor D Assay
Human factor D (purified from human serum, Complement Technology, Inc.) at 80 nM final concentration is incubated with test compound at various concentrations for 5 minutes at room temperature in 50 mM Tris, 1M NaCl, pH 7.5. A synthetic substrate Z-L-Lys-SBzl and DTNB (Ellman's reagent) are added to final concentrations of 100 µM each. The increase in color is recorded at OD405 nm in a microplate in kinetic mode over 30 minutes with 30 second time points in a […]. IC50 values are calculated by non-linear regression from the percentage of inhibition of complement factor D activity as a function of test compound concentration.

Human factor D, sequence (P00746 26-253): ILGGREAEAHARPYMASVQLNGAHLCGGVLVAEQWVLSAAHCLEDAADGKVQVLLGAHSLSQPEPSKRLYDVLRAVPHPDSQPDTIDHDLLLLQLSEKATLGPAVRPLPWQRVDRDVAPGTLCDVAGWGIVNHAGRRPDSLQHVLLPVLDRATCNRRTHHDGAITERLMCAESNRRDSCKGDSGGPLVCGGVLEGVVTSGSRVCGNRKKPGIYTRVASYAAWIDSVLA

Q: How did the IC50 turn out when `CC(=O)c1cn(CC(=O)N2C[C@H](F)C[C@H]2C(=O)NCc2cccc(Cl)c2F)c2cc(OCP(=O)(O)OCOC(=O)OC(C)C)ccc12` [Compound 13, (((3-acetyl-1-(2-((2S,4R)-2-(3-chloro-2-fluorobenzylcarbamoyl)-4-fluoropyrrolidin-1-yl)-2-oxoethyl)-1H-indol-6-yloxy)methyl)(hydro-xy)phosphoryloxy)meth-yl isopropyl carbonate] was run?
A: Its IC50 is under 1 µM.

Q: With `CC(=O)c1cn(CC(=O)N2C[C@H](F)C[C@H]2C(=O)Nc2cccc(Oc3ccccc3)c2)c2cc(OCP(=O)(O)O)ccc12` [Compound 26, (3-acetyl-1-(2-((2S,4R)-4-fluoro-2-(3-phenoxy-phenylcarbamoyl)pyrrolidin-1-yl)-2-oxoethyl)-1H-indol-6-yloxy)methylphosphonic acid] as the compound, how does the IC50 read?
A: Its IC50 is under 1 µM.

Q: Which IC50 does the source give for `CC(=O)c1cn(CC(=O)N2C[C@H](F)C[C@H]2C(=O)NCc2cccc(Cl)c2F)c2cc(Oc3ncccn3)ccc12` [Compound 30, (2S,4R)-1-(2-(3-acetyl-6-(pyrimidin-2-yloxy)-1H-indol-1-yl)acetyl)-N-(3-chloro-2-fluorobenzyl)-4-fluoropyrrolidine-2-carboxamide] here?
A: Its IC50 is under 1 µM.

Q: `CC(=O)c1cn(CC(=O)N2C[C@H](F)C[C@H]2C(=O)Nc2cccc(-c3ccccc3Cl)c2F)c2ccc(Oc3ncccn3)cc12` [Compound 38, (2S,4R)-1-(2-(3-acetyl-5-(pyrimidin-2-yloxy)-1H-indol-1-yl)acetyl)-N-(2′-chloro-2-fluorobiphenyl-3-yl)-4-fluoropyrrolidine-2-carboxamide] was tested. Which IC50 did it give?
A: Its IC50 is under 1 µM.

Q: Which IC50 does the source give for `CCOP(=O)(CC)COc1ccc2c(C(C)=O)cn(CC(=O)N3C[C@H](F)C[C@H]3C(=O)NCc3cccc(Cl)c3F)c2c1` (stereo partly drawn) [Compound 14, ethyl (3-acetyl-1-(2-((2S,4R)-2-(3-chloro-2-fluorobenzylcarbamoyl)-4-fluoropyrrolidin-1-yl)-2-oxoethyl)-1H-indol-6-yloxy)methyl(eth-yl)phosphinate] here?
A: The IC50 was under 1 µM.

Q: How did the IC50 turn out when `NC(=O)c1nn(CC(=O)N2C[C@H](F)C[C@H]2C(=O)Nc2cccc(-c3ccccc3Cl)c2F)c2cc(OCS(N)(=O)=O)ccc12` [Compound 29, 1-(2-((2S,4R)-2-(2′-chloro-2-fluorobiphenyl-3-ylcarbamoyl)-4-fluoropyrrolidin-1-yl)-2-oxoethyl)-6-(sulfamoylmethoxy)-1H-indazole-3-carboxamide] was run?
A: The IC50 was under 1 µM.

Q: With `CC(=O)c1cn(CC(=O)N2C[C@H](F)C[C@H]2C(=O)Nc2cccc(-c3ccccc3Cl)c2F)c2cc(Oc3ncccn3)ccc12` [Compound 32, (2S,4R)-1-(2-(3-acetyl-6-(pyrimidin-2-yloxy)-1H-indol-1-yl)acetyl)-N-(2′-chloro-2-fluorobiphenyl-3-yl)-4-fluoropyrrolidine-2-carboxamide] as the compound, how does the IC50 read?
A: Its IC50 is under 1 µM.

Q: How did the IC50 turn out when `CC(=O)c1cn(CC(=O)N2C[C@H](F)C[C@H]2C(=O)NCc2cccc(Cl)c2F)c2cc(OCP(=O)(O)O)ccc12` [Compound 8, (3-acetyl-1-(2-((2S,4R)-2-(3-chloro-2-fluorobenzylcarbamoyl)-4-fluoropyrrolidin-1-yl)-2-oxoethyl)-1H-indol-6-yloxy)methylphosphonic acid] was run?
A: The IC50 was under 1 µM.

Q: How did the IC50 turn out when `CC(=O)c1cn(CC(=O)N2C[C@H](F)C[C@H]2C(=O)NCc2cccc(Cl)c2F)c2cc(OCP(=O)(N[C@@H](C)C(=O)OC(C)C)N[C@@H](C)C(=O)OC(C)C)ccc12` [Compound 24, (2S,2′S)-isopropyl 2,2′-(((3-acetyl-1-(2-((2S,4R)-2-(3-chloro-2-fluorobenzylcarbamoyl)-4-fluoropyrrolidin-1-yl)-2-oxoethyl)-1H-indol-6-yloxy)methyl)phosph-oryl)bis(azanediyl)di-propanoate] was run?
A: Its IC50 is under 1 µM.

Q: `CCP(=O)(O)COc1ccc2c(C(C)=O)cn(CC(=O)N3C[C@H](F)C[C@H]3C(=O)NCc3cccc(Cl)c3F)c2c1` [Compound 16, (3-acetyl-1-(2-((2S,4R)-2-(3-chloro-2-fluorobenzylcarbamoyl)-4-fluoropyrrolidin-1-yl)-2-oxoethyl)-1H-indol-6-yloxy)methyl(eth-yl)phosphinic acid] was tested. Which IC50 did it give?
A: The IC50 was under 1 µM.

Q: Which IC50 does the source give for `CC(=O)c1cn(CC(=O)N2C[C@H](F)C[C@H]2C(=O)NCc2cccc(Cl)c2F)c2cc(OCP(=O)(OCOC(=O)OC(C)C)OCOC(=O)OC(C)C)ccc12` [Compound 12, (((3-acetyl-1-(2-((2S,4R)-2-(3-chloro-2-fluorobenzylcarbamoyl)-4-fluoropyrrolidin-1-yl)-2-oxoethyl)-1H-indol-6-yloxy)methyl)phospho-ryl)bis(oxy)bis(methylene) isopropyl dicarbonate] here?
A: Its IC50 is under 1 µM.

Q: Which IC50 does the source give for `CC(=O)c1cn(CC(=O)N2[C@@H]3C[C@@H]3C[C@H]2C(=O)NCc2cccc(Cl)c2F)c2cc(OCC3CC3)ccc12` [Compound 3, (1R,3S,5R)-2-(2-(3-acetyl-6-(cyclopropylmethoxy)-1H-indol-1-yl)acetyl)-N-(3-chloro-2-fluorobenzyl)-2-azabicyclo[3.1.0]hexane-3-carboxamide] here?
A: Its IC50 is under 1 µM.

Q: How did the IC50 turn out when `CCOP(=O)(COc1ccc2c(C(C)=O)cn(CC(=O)N3C[C@H](F)C[C@H]3C(=O)NCc3cccc(Cl)c3F)c2c1)OCC` [Compound 7, diethyl (3-acetyl-1-(2-((2S,4R)-2-(3-chloro-2-fluorobenzylcarbamoyl)-4-fluoropyrrolidin-1-yl)-2-oxoethyl)-1H-indol-6-yloxy)methylphosphonate] was run?
A: Its IC50 is under 1 µM.

Q: With `CC(=O)c1cn(CC(=O)N2C[C@H](F)C[C@H]2C(=O)Nc2cccc(-c3ccccc3Cl)c2F)c2ccc(Oc3cnc(Cl)nc3)cc12` [Compound 43, (2S,4R)-1-(2-(3-acetyl-5-(2-chloropyrimidin-5-yloxy)-1H-indol-1-yl)acetyl)-N-(2′-chloro-2-fluorobiphenyl-3-yl)-4-fluoropyrrolidine-2-carboxamide] as the compound, how does the IC50 read?
A: Its IC50 is under 1 µM.

Q: Which IC50 does the source give for `CC(=O)c1cn(CC(=O)N2C[C@H](F)C[C@H]2C(=O)NCc2cccc(Cl)c2F)c2cc(OCP(=O)(OCOC(=O)C(C)(C)C)OCOC(=O)C(C)(C)C)ccc12` [Compound 21, (((3-acetyl-1-(2-((2S,4R)-2-(3-chloro-2-fluorobenzylcarbamoyl)-4-fluoropyrrolidin-1-yl)-2-oxoethyl)-1H-indol-6-yloxy)methyl)phosph-oryl)bis(oxy)bis(meth-ylene) bis(2,2-dimethylpropanoate)] here?
A: The IC50 was under 1 µM.

Q: Which IC50 does the source give for `CC(=O)c1cn(CC(=O)N2C[C@H](F)C[C@H]2C(=O)Nc2cccc(-c3ccccc3Cl)c2F)c2ccc(Oc3cnc(C#N)nc3)cc12` [Compound 36, (2S,4R)-1-(2-(3-acetyl-5-(2-cyanopyrimidin-5-yloxy)-1H-indol-1-yl)acetyl)-N-(2′-chloro-2-fluorobiphenyl-3-yl)-4-fluoropyrrolidine-2-carboxamide] here?
A: The IC50 was under 1 µM.

Q: For `CCCCCCCCCCCCCCCCOCCCOP(=O)(O)COc1ccc2c(C(C)=O)cn(CC(=O)N3C[C@H](F)C[C@H]3C(=O)NCc3cccc(Cl)c3F)c2c1` [Compound 20, 3-(hexadecyloxy)propyl hydrogen (3-acetyl-1-(2-((2S,4R)-2-(3-chloro-2-fluorobenzylcarbamoyl)-4-fluoropyrrolidin-1-yl)-2-oxoethyl)-1H-indol-6-yloxy)methylphosphonate], which IC50 is on record?
A: Its IC50 is under 1 µM.

Q: With `CC(=O)c1cn(CC(=O)N2C[C@H](F)C[C@H]2C(=O)NCc2cccc(Cl)c2F)c2cc(OCC3CC3)ccc12` [Compound 1, (2S,4R)-1-(2-(3-acetyl-6-(cyclopropylmethoxy)-1H-indol-1-yl)acetyl)-N-(3-chloro-2-fluorobenzyl)-4-fluoropyrrolidine-2-carboxamide] as the compound, how does the IC50 read?
A: Its IC50 is under 1 µM.

Q: For `CC(=O)c1cn(CC(=O)N2C[C@H](F)C[C@H]2C(=O)NCc2cccc(Cl)c2F)c2cc(OS(=O)(=O)C(F)(F)F)ccc12` [Compound 2, 3-acetyl-1-(2-((2S,4R)-2-(3-chloro-2-fluorobenzylcarbamoyl)-4-fluoropyrrolidin-1-yl)-2-oxoethyl)-1H-indol-6-yl trifluoromethanesulfonate], which IC50 is on record?
A: The IC50 was under 1 µM.

Q: `CC(=O)c1cn(CC(=O)N2C[C@H](F)C[C@H]2C(=O)NCc2cccc(Cl)c2F)c2ccc(OCP(=O)(O)O)cc12` [Compound 11, (3-acetyl-1-(2-((2S,4R)-2-(3-chloro-2-fluorobenzylcarbamoyl)-4-fluoropyrrolidin-1-yl)-2-oxoethyl)-1H-indol-5-yloxy)methylphosphonic acid] was tested. Which IC50 did it give?
A: The IC50 was under 1 µM.

Q: For `CC(=O)c1cn(CC(=O)N2C[C@H](F)C[C@H]2C(=O)NCc2cccc(Cl)c2F)c2cc(OCS(N)(=O)=O)ccc12` [Compound 17, (2S,4R)-1-(2-(3-acetyl-6-(sulfamoylmethoxy)-1H-indol-1-yl)acetyl)-N-(3-chloro-2-fluorobenzyl)-4-fluoropyrrolidine-2-carboxamide], which IC50 is on record?
A: Its IC50 is under 1 µM.

Q: `CC(=O)c1cn(CC(=O)N2C[C@H](F)C[C@H]2CNS(=O)(=O)c2cccc(Cl)c2F)c2cc(OCP(=O)(O)O)ccc12` [Compound 22, (3-acetyl-1-(2-((2S,4R)-2-((3-chloro-2-fluoro-phenylsulfonamido)meth-yl)-4-fluoropyrrolidin-1-yl)-2-oxoethyl)-1H-indol-6-yloxy)methylphosphonic acid] was tested. Which IC50 did it give?
A: Its IC50 is under 1 µM.

Q: With `CC(=O)c1cn(CC(=O)N2C[C@H](F)C[C@H]2C(=O)N[C@H](C)c2cccc(Cl)c2F)c2cc(OCP(=O)(O)O)ccc12` [Compound 19, (3-acetyl-1-(2-((2S,4R)-2-((R)-1-(3-chloro-2-fluorophenyl)ethyl-carbamoyl)-4-fluoropyrrolidin-1-yl)-2-oxoethyl)-1H-indol-6-yloxy)methylphosphonic acid] as the compound, how does the IC50 read?
A: The IC50 was under 1 µM.

Q: `CC(=O)c1cn(CC(=O)N2C[C@H](F)C[C@H]2C(=O)Nc2cccc(-c3ccccc3Cl)c2F)c2ccc(Oc3ncc(C(F)(F)F)cn3)cc12` [Compound 42, (2S,4R)-1-(2-(3-acetyl-5-(5-(trifluoromethyl)pyrimidin-2-yloxy)-1H-indol-1-yl)acetyl)-N-(2′-chloro-2-fluorobiphenyl-3-yl)-4-fluoropyrrolidine-2-carboxamide] was tested. Which IC50 did it give?
A: The IC50 was under 1 µM.
